Consider four compounds from US8702684B2, “Therapeutic hybrid implantable devices” (University of Miami, priority 2007, dated 2014).

The structures appear in SMILES notation. “Also recorded” adds a separate entry of the source.

Holding throughout (type): in vivo, rat
Data set [1] has as its system islet allografts in diabetic Lewis rats. Description: Allogeneic islet graft survival in hybrid devices with local immunosuppression via micro-osmotic pump after weaning of systemic immunosuppression. Particulars: local delivery by micro-osmotic pump 0.25 microL/h, dexamethasone phosphate 20 mg/L, loteprednol etabonate 0.2, 0.5, 10 mg/L, S1P receptor agonist 50 mg/L, controls rejected within 2 weeks of stopping systemic immunosuppression. From the text: Forty days before islet transplantation, the rats were implanted with a hybrid device of the invention with a plunger-containing device in the subcutaneous space as described in Example 3. Allogeneic islets (7,000 IE isolated from Wistar Furth rats) were then deposited into the neovascularized spaces of the hybrid devices, and after the transplantation, the animals' glucose levels were monitored daily as described in Examples 1 and 3. Post-transplantation, all animals received systemic immunosuppression treatment consisting of a single-dose induction treatment with T-cell depleting anti-lymphocyte serum (ALS) given intravenously on day −3. Starting on the day of islet transplantation, systemic maintenance immunosuppression with mycophenolic acid (MPA, 20 mg/kg) was given daily orally for at least three weeks. […] After at least two weeks of treatment, systemic immunosuppression was tapered and discontinued, while the local immunosuppression was maintained. For example, a typical weaning protocol of systemic treatment consisted of 25% reduction of MPA for two consecutive days over an 8-day period. FIG. 25 illustrates an experimental protocol of transient systemic immunosuppression combined with local extended immunotherapy.
Starting on the day of islet transplantation, animals also received local immunosuppression delivered using a micro-osmotic pump such as the Alzet® 100 microL volume, 2-week continuous infusion, 0.25 microL/h delivery rate model 1002 pump (Durect Corp., Cupertino, Calif.). Both the device and the pump were implanted in the dorsal region of the rodents, and they were connected via a PE tubing. Animals were divided into controls receiving either local saline or no treatment and treatment groups receiving various immunosuppressive agents such as, for example, dexamethasone phosphate (20 mg/L), loteprednol etabonate (0.2, 0.5, and 10 mg/L), or a sphingosine-1-phosphate (S1P) receptor agonist (50 mg/L) from the micro-osmotic pump.

Data set [2] concerns already-engrafted syngeneic islet grafts in rats. The data set is described as follows: Effect of systemic immunosuppression on already-engrafted functional syngeneic islet grafts. Particulars: for animals returning to normoglycemia / recovering function after drug withdrawal: after 40 days treatment.
For data set [3], the system named is syngeneic islet grafts in chemically-diabetic Lewis rats. The data set is described as follows: Effect of systemic immunosuppression given from day of syngeneic islet transplantation on engraftment and graft function in hybrid devices. The conditions noted are these: for animals achieving normoglycemia at later times after withdrawal of immunosuppression: fraction of animals in group, single-drug treatment; for graft function while under treatment: syngeneic islets 3,000 IEQ, treatment from day of transplantation for 40 days, controls normoglycemic long-term. On the procedure:
To assess the impact of conventional systemic immunosuppression on islet engraftment and function in prevascularized hybrid devices, we carried out syngeneic islet transplantation in chemically-diabetic Lewis rats that were treated with either rapamycin or tacrolimus (alone or in combination) as described in Example 3, starting from the day of islet transplantation, for 40 days. Control animals received no treatment.

In the case of `C[C@@H]1C[C@H]2[C@@H]3CCC4=CC(=O)C=C[C@]4(C)[C@@]3(F)[C@@H](O)C[C@]2(C)[C@@]1(O)C(=O)COP(=O)(O)O` [dexamethasone phosphate], the “allograft survival compared to control animals” value in data set [1] was “clear extension of allograft survival”; in data set [1] (listed as dexametasone phosphate), “sizable extension of allograft survival”.
As to `CCOC(=O)O[C@]1(C(=O)OCCl)CC[C@H]2[C@@H]3CCC4=CC(=O)C=C[C@]4(C)[C@H]3[C@@H](O)C[C@@]21C` [loteprednol etabonate], in data set [1], the “allograft survival compared to control animals” value is reported as “clear extension of allograft survival; also recorded: sizable extension of allograft survival”.
Take `CO[C@H]1C[C@@H]2CC[C@@H](C)[C@@](O)(O2)C(=O)C(=O)N2CCCC[C@H]2C(=O)O[C@H]([C@H](C)C[C@@H]2CC[C@@H](O)[C@H](OC)C2)CC(=O)[C@H](C)/C=C(\C)[C@@H](O)[C@@H](OC)C(=O)[C@H](C)C[C@H](C)/C=C/C=C/C=C/1C` [rapamycin, sirolimus]: the “animals returning to normoglycemia / recovering function after drug withdrawal” value in data set [2] (already-engrafted graft) was “returned to normoglycemia”. Further, in data set [2] (fraction of animals, 40 days treatment of already-engrafted graft), the “animals displaying dysfunction while under treatment” value was “⅓”. Besides, in data set [3], the “animals achieving normoglycemia at later times after withdrawal of immunosuppression” value is listed as “¼” and the “graft function while under treatment” value is reported as “only partial function or primary non-function; also recorded: only partial or primary non-function”.
With `C=CC[C@@H]1/C=C(\C)C[C@H](C)C[C@H](OC)[C@H]2O[C@@](O)(C(=O)C(=O)N3CCCC[C@H]3C(=O)O[C@H](/C(C)=C/[C@@H]3CC[C@@H](O)[C@H](OC)C3)[C@H](C)[C@@H](O)CC1=O)[C@H](C)C[C@@H]2OC` [tacrolimus], the “graft function under systemic immunosuppression administered for 40 days” value in data set [2] (already-engrafted graft, >=40 days post implantation) is “impaired graft function”. The “animals returning to normoglycemia / recovering function after drug withdrawal” value in data set [2] (already-engrafted graft) is “⅓”. Also, in data set [3], the “animals achieving normoglycemia at later times after withdrawal of immunosuppression” value was “¼” and the “graft function while under treatment” value is given as “only partial function or primary non-function; also recorded: only partial or primary non-function”.
